Read-outs that look alike come from different tables or passages of the source.
Experiments:
HGEPp cells [1] = assay: ROS production in H2O2-induced oxidatively stressed HGEPp cells; type: cell-based, human; conditions: HGEPp cells pretreated 24 hrs at 100 μg/mL prior to 0.3 mM H2O2 for 4 h; positive control 139%
Method: That same assay was carried out on the rotomer compositions prepared in Examples 1-11 above to determine their effect on protecting primary human gingival epithelial cells (HGEPp) cells from oxidative damage induced by hydrogen peroxide (H2O2).

rat cortical neurons = assay: Caspase 3/7 activation assay, OGD-induced neurotoxicity in rat cortical neurons; type: cell-based; conditions: for OGD induced caspase 3/7 activation / neuroprotection: 100 μg/ml, 1 h incubation eighteen hours prior to OGD, FIG. 7
Method: The effect of the rotomer complexes of Examples 1, 2, 3 and 9 on neurotoxicity induced by oxygen glucose deprivation (OGD) was tested in a caspase 3/7 activation assay. The assay was applied to freshly isolated rat cortical neurons cultured in 96-well-plates and exposed to the compounds at 100 μg/ml.
In vitro ischemic injury was induced in rat primary neuronal culture by oxygen-glucose deprivation for 2 hours. Neurons were incubated with the compounds for 1 hour eighteen hours prior to the OGD induction. Dizocilpine (MK801) 10 μM was used as positive neuroprotection control. After treatments, incubated with three optically compatible fluorescent dyes, and subsequently analyzed with BD Pathway 855 (Becton Dickinson). Cell parameters associated with caspase 3/7 activation—indicative of pre-lethal cytotoxic effects—were measured by high content screening at single cell level.
Primary cultures of cortical neurons were isolated from cerebral cortices of Sprague-Dawley rat fetuses at embryonic day 18. Brains were removed and after removing the meninges, the tissues were dissected under a binocular microscope. Neurons were enzymatically dispersed by trypsin 0.2% and DNAse […] digestion for 10 min at 37° C. plated in poly-L-lysine wells and incubated with B27 supplemented neurobasal medium.
Cortical neurons of 18 days old embryonic rats were plated in poly-1-lysine coated 96-well plates (30,000 cells per well). Cells were maintained in neurobasal medium supplemented with B-27 component: for 5 days at 37° C. in a humidified 5% CO2 atmosphere. At day 5, cells were subjected to oxygen glucose deprivation (OGD) for 2 hours at 37° C. The cultures were placed in an […] chamber (Billops-Rothenberg) and incubated in neurobasal medium lacking glucose and B27 factor and aerated with an anaerobic gas mixture (94.7% N2. 5% CO2, 0.3% O2) to remove residual oxygen. Control cultures were kept in the original neurobasal medium but were submitted to the anaerobic conditions. At the end of the OGD conditions, the cells were removed from the anaerobic chamber, the OGD medium was replaced with neurobasal medium containing glucose, and the cells were incubated for an additional 24 h. The test compounds were added to the neurons eighteen hours prior to the OGD induction and maintained for 1 h. Replicate cultures were treated as described above with dizocilpine (MK801) as positive control of neuroprotection. The neuroprotective potential of the four rotomer complexes was determined by a caspase 3/7 activation assay.
(§1) Caspase 3/7 activation was determined using The CellEvent® Caspase-3/7 Green Detection Reagent which is intrinsically a non-fluorescent peptide that inhibits the ability of the dye to bind to DNA. However, after caspase-3/7 activation in apoptotic cells, the peptide is cleaved allowing the dye to bind to DNA producing a bright, fluorogenic response. Cell were stained with 5 μM reagent, washed 3 times and measured at 488 nm/530 nm Ex/Em. This dye permits the direct quantification of apoptotic cells.

[2] = system: mouse neonatal primary cardiomyocyte; conditions: 100 μg/ml, 4 hours prior to OGD, during 18 h OGD and 24 h recovery; FIG. 9
Method: as §1

ALOX12 = assay: Human oxidative stress RT2 Profiler PCR array in HGEPp cells: ALOX12; type: cell-based; conditions: HGEPp cells pretreated 24 h at 100 μg/ml; ΔΔCt
Method: (§2) RT-PCR was performed on an iCycler.

SOD1 = assay: Human oxidative stress RT2 Profiler PCR array in HGEPp cells: SOD1; type: cell-based; conditions: HGEPp cells pretreated 24 h at 100 μg/ml; ΔΔCt
Method: as §2

GPX1 = assay: Human oxidative stress RT2 Profiler PCR array in HGEPp cells: GPX1; type: cell-based; conditions: HGEPp cells pretreated 24 h at 100 μg/ml; ΔΔCt
Method: as §2

NQO1 = assay: Human oxidative stress RT2 Profiler PCR array in HGEPp cells: NQO1; type: cell-based; conditions: HGEPp cells pretreated 24 h at 100 μg/ml; ΔΔCt
Method: as §2

GCLC = assay: Human oxidative stress RT2 Profiler PCR array in HGEPp cells: GCLC; type: cell-based; conditions: HGEPp cells pretreated 24 h at 100 μg/ml; ΔΔCt
Method: as §2

GSTP1 = assay: Human oxidative stress RT2 Profiler PCR array in HGEPp cells: GSTP1; type: cell-based; conditions: HGEPp cells pretreated 24 h at 100 μg/ml; ΔΔCt
Method: as §2

GCLM = assay: Human oxidative stress RT2 Profiler PCR array in HGEPp cells: GCLM; type: cell-based; conditions: HGEPp cells pretreated 24 h at 100 μg/ml; ΔΔCt
Method: as §2

GTF2i = assay: Human oxidative stress RT2 Profiler PCR array in HGEPp cells: GTF2i; type: cell-based; conditions: HGEPp cells pretreated 24 h at 100 μg/ml; ΔΔCt
Method: as §2

PTGS1 = assay: Human oxidative stress RT2 Profiler PCR array in HGEPp cells: PTGS1; type: cell-based; conditions: HGEPp cells pretreated 24 h at 100 μg/ml; ΔΔCt
Method: as §2

UCP2 = assay: Human oxidative stress RT2 Profiler PCR array in HGEPp cells: UCP2; type: cell-based; conditions: HGEPp cells pretreated 24 h at 100 μg/ml; ΔΔCt
Method: as §2

MPO = assay: Human oxidative stress RT2 Profiler PCR array in HGEPp cells: MPO; conditions: HGEPp cells pretreated 24 h at 100 μg/ml; ΔΔCt
Method: (§3) Pooled primary HGEPp cells were propagated in CnT-Prime epithelial culture medium provided by CellnTec on 100 mm petri dishes coated with 30 mg/ml Type I rat tail collagen (BD Biosciences) diluted in Duibecco's phosphate-buffered saline (DPBS). HGEPp cells were grown in 12×60 mm Nunc™ Cell Culture dishes at a 2.5×10^4 cells/cm2 density concentration.
(§4) All dosing solutions contained 0.3% of DMSO which is well below the maximum tolerated DMSO percent of 0.8% for HGEPp cells.
(§5) The RN-easy UCP Micro Kit was used to purify mRNA from the HGEPp cells.
(§6) The assay was reliably used to analyze expression levels of 84 genes related to oxidative stress in HGEPp cells pre-treated with ST-617-APT, ST-617-DPT and the rotomeric complexes at 100 μg/ml for 24 h. The cDNA from above was mixed with the RT2 SYBR Green fluor Mastermix and aliquoted into the wells of the RT2 Profiler PCR Array. RT-PCR was performed on an iCycler. Gene expression was compared using et values and the results were calculated using ΔΔ Ct method with normalization to the average expression levels of the five common genes (ACTB, B2M, GAPDH, HPRT, and RPL13A).

GPX4 = assay: Human oxidative stress RT2 Profiler PCR array in HGEPp cells: GPX4; conditions: HGEPp cells pretreated 24 h at 100 μg/ml; ΔΔCt
Method: as §3, §4, §5, §6

PRDX2 = assay: Human oxidative stress RT2 Profiler PCR array in HGEPp cells: PRDX2; conditions: HGEPp cells pretreated 24 h at 100 μg/ml; ΔΔCt
Method: as §3, §4, §5, §6

[3] = system: oxidative stress-related genes in HGEPp cells; assay: Human oxidative stress RT2 Profiler PCR array in HGEPp cells: statements over several genes; conditions: for SOD1, NQ01, GCLC, GSTP1 and GCLM; 100 μg/ml, 24 h
Method: as §3, §4, §5, §6

HGEPp cells [4] = conditions: 100 μg/mL pretreatment; taken from PCT/IB2017/001312; cited from earlier work

Cc1c(-c2cnccn2)ssc1=S.Cl [Example 1, hydrochloride complex of oltipraz]
ROS level relative to Normal (100%, optical density baseline) (HGEPp cells [1]): 128%
OGD induced caspase 3/7 activation (rat cortical neurons): significantly reduced
neuroprotection (rat cortical neurons): high degree of neuroprotection
cardioprotection [2]: significant degree of cardioprotection

Cc1c(-c2cncc[n+]2OC2=CC(=O)OC2=O)ssc1=S [Example 2, hydroxymaleate anhydride complex of oltipraz]
ROS level relative to Normal (100%, optical density baseline) (HGEPp cells [1]): 116%
OGD induced caspase 3/7 activation (rat cortical neurons): significantly reduced
neuroprotection (rat cortical neurons): high degree of neuroprotection
cardioprotection [2]: significant degree of cardioprotection

CC(=O)[n+]1ccncc1-c1ssc(=S)c1C.[Cl-] [Example 3, acetyl chloride complex of oltipraz]
ROS level relative to Normal (100%, optical density baseline) (HGEPp cells [1]): 129%
ALOX12 up regulation relative fold change (ALOX12): 6.33 fold
SOD1 up regulation relative fold change (SOD1): 4.24 fold
GPX1 up regulation relative fold change (GPX1): 4.76 fold
NQO1 up regulation relative fold change (NQO1): 3.36 fold
GCLC up regulation relative fold change (GCLC): 3.27 fold
GSTP1 up regulation relative fold change (GSTP1): 2.87 fold
GCLM up regulation relative fold change (GCLM): 2.38 fold
GTF2i down regulation relative fold change (GTF2i): 0.32 fold
PTGS1 down regulation relative fold change (PTGS1): 0.29 fold
UCP2 down regulation relative fold change (UCP2): 0.26 fold
OGD induced caspase 3/7 activation (rat cortical neurons): significantly reduced
neuroprotection (rat cortical neurons): high degree of neuroprotection
cardioprotection [2]: significant degree of cardioprotection
MPO up regulation relative fold change (MPO): 3.10 fold
GPX4 up regulation relative fold change (GPX4): 2.83 fold
PRDX2 down regulation relative fold change (PRDX2): 0.33 fold

CCCC[n+]1ccncc1-c1ssc(=S)c1C.[Cl-] [Example 4, n-butyl chloride complex of oltipraz]
ROS level relative to Normal (100%, optical density baseline) (HGEPp cells [1]): 128%
ALOX12 up regulation relative fold change (ALOX12): 5.82 fold
SOD1 up regulation relative fold change (SOD1): 4.15 fold
GPX1 up regulation relative fold change (GPX1): 4.80 fold
NQO1 up regulation relative fold change (NQO1): 3.34 fold
GCLC up regulation relative fold change (GCLC): 3.35 fold
GSTP1 up regulation relative fold change (GSTP1): 2.88 fold
GCLM up regulation relative fold change (GCLM): 2.38 fold
GTF2i down regulation relative fold change (GTF2i): 0.35 fold
PTGS1 down regulation relative fold change (PTGS1): 0.27 fold
UCP2 down regulation relative fold change (UCP2): 0.25 fold
MPO up regulation relative fold change (MPO): 3.20 fold
GPX4 up regulation relative fold change (GPX4): 2.96 fold
PRDX2 down regulation relative fold change (PRDX2): 0.32 fold

Cc1c(-c2cncc[n+]2C)ssc1=S.[I-] [Example 5, methyl iodide complex of oltipraz]
ROS level relative to Normal (100%, optical density baseline) (HGEPp cells [1]): 134%
ALOX12 up regulation relative fold change (ALOX12): 6.04 fold
SOD1 up regulation relative fold change (SOD1): 3.89 fold
GPX1 up regulation relative fold change (GPX1): 4.98 fold
NQO1 up regulation relative fold change (NQO1): 3.15 fold
GCLC up regulation relative fold change (GCLC): 3.38 fold
GSTP1 up regulation relative fold change (GSTP1): 2.90 fold
GCLM up regulation relative fold change (GCLM): 2.27 fold
GTF2i down regulation relative fold change (GTF2i): 0.33 fold
PTGS1 down regulation relative fold change (PTGS1): 0.28 fold
UCP2 down regulation relative fold change (UCP2): 0.29 fold
MPO up regulation relative fold change (MPO): 3.18 fold
GPX4 up regulation relative fold change (GPX4): 2.85 fold
PRDX2 down regulation relative fold change (PRDX2): 0.32 fold

Cc1c(-c2cncc[n+]2C(=O)c2ccccc2)ssc1=S.[Cl-] [Example 6, benzoyl chloride complex of oltipraz]
ROS level relative to Normal (100%, optical density baseline) (HGEPp cells [1]): 131%
ALOX12 up regulation relative fold change (ALOX12): 5.93 fold
SOD1 up regulation relative fold change (SOD1): 3.92 fold
GPX1 up regulation relative fold change (GPX1): 4.43 fold
NQO1 up regulation relative fold change (NQO1): 3.17 fold
GCLC up regulation relative fold change (GCLC): 3.31 fold
GSTP1 up regulation relative fold change (GSTP1): 2.74 fold
GCLM up regulation relative fold change (GCLM): 2.25 fold
GTF2i down regulation relative fold change (GTF2i): 0.36 fold
PTGS1 down regulation relative fold change (PTGS1): 0.28 fold
UCP2 down regulation relative fold change (UCP2): 0.28 fold
MPO up regulation relative fold change (MPO): 3.05 fold
GPX4 up regulation relative fold change (GPX4): 2.91 fold
PRDX2 down regulation relative fold change (PRDX2): 0.31 fold

COP(=O)([O-])OC.Cc1c(-c2c[n+](C)ccn2)ssc1=S [Example 9, dimethyl phosphate complex of N-methyl oltipraz]
ROS level relative to Normal (100%, optical density baseline) (HGEPp cells [1]): 112%
ALOX12 up regulation relative fold change (ALOX12): 6.43 fold
SOD1 up regulation relative fold change (SOD1): 5.22 fold
GPX1 up regulation relative fold change (GPX1): 4.89 fold
NQO1 up regulation relative fold change (NQO1): 4.24 fold
GCLC up regulation relative fold change (GCLC): 4.60 fold
GSTP1 up regulation relative fold change (GSTP1): 3.16 fold
GCLM up regulation relative fold change (GCLM): 3.15 fold
GTF2i down regulation relative fold change (GTF2i): 0.28 fold
PTGS1 down regulation relative fold change (PTGS1): 0.21 fold
UCP2 down regulation relative fold change (UCP2): 0.15 fold
OGD induced caspase 3/7 activation (rat cortical neurons): significantly reduced
neuroprotection (rat cortical neurons): high degree of neuroprotection
cardioprotection [2]: significant degree of cardioprotection
MPO up regulation relative fold change (MPO): 3.41 fold
GPX4 up regulation relative fold change (GPX4): 2.93 fold
PRDX2 down regulation relative fold change (PRDX2): 0.27 fold
up-regulation compared to ST-617-DPI and ST-617-DPI [3]: significantly higher up-regulation

Cc1c(-c2cnccn2)ssc1=S.O=S(=O)(O)CCO [Example 10, isethionic acid complex of oltipraz]
ROS level relative to Normal (100%, optical density baseline) (HGEPp cells [1]): 113%
up-regulation compared to ST-617-DPI and ST-617-DPI [3]: significantly higher up-regulation

C[C@]12N[C@H](Cc3ccccc31)c1ccccc12 [MK801, Dizocilpine, reference compound]
prevention of OGD-induced apoptosis based on caspase activation (rat cortical neurons; 10 μM, OGD 2 hours, measured 24 h after exposure): 28%

Cc1c(-c2cnccn2)ssc1=S [ST-617-API, 4-methyl-5-(pyrazin-2-yl)-3H-1,2-dithiole-3-thione, reference compound]
PTGS1 down regulation relative fold change (PTGS1): 6.22 fold
ROS level relative to Normal (100%, optical density baseline) (HGEPp cells [4]): 124%

thiobenzoic acid complex of oltipraz [Example 11]
ROS level relative to Normal (100%, optical density baseline) (HGEPp cells [1]): 116%
